Results on 6 compounds are retold here after PubChem BioAssay AID2055 (NMMLSC, 2009).

The assay addresses Ras-related C3 botulinum toxin substrate 1 (Homo sapiens) (UniProt P63000). The experiment in a line: blockers of fluorescent GTP loading onto wildtype Rac1 – biochemical, pyrazoline analogs, multiplex, flow cytometry, Ki, SAR follow-up (AID 2055). Conditions: Rac1-GST beads, Bodipy-FL-GTP binding, Ki calculated from EC50.

Each structure is given as a SMILES string.

As usually defined, the Ki is a measure of affinity in units of concentration, obtained from inhibition or displacement.

On to `Brc1ccc(N2N=C(c3ccccc3)CC2c2ccccc2)cc1` (stereo unspecified), for which the Ki is 0.89 µM.

In the case of `CC(=O)Oc1ccc(C2=NN(c3ccccc3)C(c3ccccc3)C2)cc1` (stereo unspecified), the Ki was 0.53 µM.

As to `CN(C)c1ccc(C2CC(c3ccccc3)=NN2c2ccc([N+](=O)[O-])cc2)cc1` (stereo unspecified), the Ki is 1.9 µM.

`O=C(O)c1ccc(N2N=C(c3ccccc3)CC2c2ccccc2)cc1` (stereo unspecified): the Ki is 5.11 µM.

For `COc1ccc(C2CC(c3ccc(F)cc3)=NN2c2cc(Cl)ccc2Cl)cc1` (stereo unspecified), the Ki was 0.01 µM.

As to `COc1ccc(C2CC(c3ccccc3)=NN2c2ccc(S(N)(=O)=O)cc2)cc1OC` (stereo unspecified), the Ki is 1.24 µM.
